Measurements reported in PMC7644958, “Estimates of RelSeq, Mesh1, and SAHMex Hydrolysis of (p)ppGpp and (p)ppApp by Thin Layer Chromatography and NADP/NADH Coupled Assays” (Frontiers in Microbiology, 2020).

Target: T1, MESH1 (Homo sapiens, UniProt Q8N4P3)
T1 construct: gene HDDC3; pET28 derivative, expressed in E. coli BL21(lambda DE3); His-tag removed with thrombin
Test: TLC hydrolysis assay (PEI-cellulose)
Format: biochemical
Details: 5 mM substrate, pH 8.0, 37°C, 250 mM NaCl, 14 mM MgCl2, 6.5 mM MnCl2

T1 sequence (Q8N4P3 whole entry): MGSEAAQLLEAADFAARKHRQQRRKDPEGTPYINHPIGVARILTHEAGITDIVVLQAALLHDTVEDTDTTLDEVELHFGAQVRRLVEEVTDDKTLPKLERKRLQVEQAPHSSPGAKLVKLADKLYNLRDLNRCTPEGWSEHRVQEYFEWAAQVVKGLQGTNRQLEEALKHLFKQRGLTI

Compound	TLC hydrolysis assay (PEI-cellulose)
Nc1ncnc2c1ncn2[C@@H]1O[C@H](COP(=O)(O)OP(=O)(O)O)[C@@H](OP(=O)(O)OP(=O)(O)O)[C@H]1O [ppApp]	The human MESH1 hydrolase displays similar activities as shown for Drosophila Mesh1
Nc1ncnc2c1ncn2[C@@H]1O[C@H](COP(=O)(O)OP(=O)(O)OP(=O)(O)O)[C@@H](OP(=O)(O)OP(=O)(O)O)[C@H]1O [pppApp]	The human MESH1 hydrolase displays similar activities as shown for Drosophila Mesh1
